The record followed here is ChEMBL document CHEMBL1150308, “Cytotoxic constituents from Brazilian red propolis and their structure-activity relationship” (Bioorg Med Chem, 2008).

Holding throughout (type): functional, cell-based
The test system of one experiment is A549. The experiment can be described thus: Cytotoxicity against human A549 cells after 72 hrs by MTT assay. The settings on record: A549, 72 h. (Tetrazolium assays rely on reduction of a dye to a coloured formazan, in cell work by metabolically active cells.)
Experiment [1] can be described thus: Cytotoxicity against mouse LLC cells after 72 hrs by MTT assay. The settings on record: Lewis lung carcinoma.
In the next experiment the test system is HeLa. The experiment can be described thus: Cytotoxicity against human HeLa cells after 72 hrs by MTT assay.
Experiment [2] is described as follows: Cytotoxicity against mouse B16-BL6 cells after 72 hrs by MTT assay. Particulars: B16-BL6, 72 h.
Experiment [3] in a line: Cytotoxicity against mouse colon 26-L5 cells after 72 hrs by MTT assay.
In another experiment the test system is HT-1080. The experiment can be described thus: Cytotoxicity against human HT1080 cells after 72 hrs by MTT assay. The settings on record: HT-1080, 72 h.

A value given as a limit tells only on which side of the number the result lay.

As for `COc1ccc([C@H]2COc3cc(O)cc(O)c3C2=O)c(O)c1`, the IC50 (in general, the concentration that inhibits the measured activity by half) in the experiment on A549 was more than 100 µM; in experiment [1], more than 100 µM; in the experiment on HeLa, more than 100 µM; in experiment [2], more than 100 µM; in experiment [3], 71.3 µM; in the experiment with HT-1080 it was more than 100 µM.
As for `COc1ccc([C@H]2COc3cc(O)ccc3C2=O)c(O)c1`, the IC50 in the experiment on A549 was more than 100 µM; in experiment [1] it was more than 100 µM; in the experiment with HeLa it was more than 100 µM; in experiment [2] it was more than 100 µM; in experiment [3] it was 67 µM; in the experiment on HT-1080 it was more than 100 µM.
On to `COc1ccc([C@H]2OC[C@H]3[C@@H]2CO[C@@H]3c2ccc(OC)c(OC)c2)cc1OC` [(+)-EUDESMIN], for which the IC50 (in the experiment with A549; in experiment [1]; in the experiment on HeLa; in experiment [2]; in experiment [3]; with HT-1080) was more than 100 µM throughout.
Turning to `COc1ccc2c(c1)O[C@H]1c3ccc(O)c(OC)c3OC[C@@H]21`, the IC50 is 97.3 µM in the experiment on A549; 97.6 µM in experiment [1]; 47.1 µM with HeLa; more than 100 µM in experiment [2]; 29.4 µM in experiment [3]; 96.3 µM in the experiment with HT-1080.
Take `COc1c(O)cc2c(c1O)C(=O)[C@H](O)[C@@H](c1ccccc1)O2` [ALNUSTINOL]: the IC50 (in the experiment on A549; in experiment [1]; in the experiment with HeLa; in experiment [2]; in experiment [3]; with HT-1080) was more than 100 µM throughout.
With `COc1c(O)cc2oc(-c3ccccc3)c(O)c(=O)c2c1O` [ALNUSIN], the IC50 (with A549; in experiment [1]; in the experiment on HeLa; in experiment [2]; in experiment [3]; in the experiment on HT-1080) was more than 100 µM in each case.
Take `COc1ccc([C@H]2COc3cc(O)ccc3C2)c(OC)c1O` [MUCRONULATOL]: the concentration for half-maximal inhibition (IC50) with A549 came to 9.9 µM; in experiment [1], 8.4 µM; in the experiment on HeLa, 24.2 µM; in experiment [2], 30.4 µM; in experiment [3], 7.3 µM; with HT-1080, 18.2 µM.
Turning to `O=C1C[C@@H](c2ccccc2)Oc2cc(O)c(O)c(O)c21`, the IC50 is more than 100 µM in the experiment with A549; more than 100 µM in experiment [1]; more than 100 µM in the experiment with HeLa; more than 100 µM in experiment [2]; 53.4 µM in experiment [3]; more than 100 µM with HT-1080.
In the case of `O=C1c2ccc(O)cc2O[C@H](c2ccccc2)[C@H]1O`, the IC50 (in the experiment on A549; in experiment [1]; in the experiment with HeLa; in experiment [2]; in experiment [3]; with HT-1080) was more than 100 µM each time.
